According to the NIST ThermoML archive (doi:10.1021/je7000182):
± gives the expanded uncertainty stated by the source.

Assay: xn = mol fraction of the nth substance listed
Settings: for mass density: 101 kPa, Liquid

CC(C)=O [acetone] + Cc1ccccc1
Settings	mass density [kg/m3]	surface tension liquid-gas [mN/m]
288.15 K, x1 = 0.1	866.62 ± 0.26	28.54 ± 0.6
288.15 K, x1 = 0.2	861.43 ± 0.26	27.86 ± 0.59
288.15 K, x1 = 0.3	855.6 ± 0.27	27.32 ± 0.58
288.15 K, x1 = 0.4	849.5 ± 0.28	26.98 ± 0.57
288.15 K, x1 = 0.5	842.16 ± 0.29	26.58 ± 0.57
288.15 K, x1 = 0.6	834.94 ± 0.29	25.91 ± 0.56
288.15 K, x1 = 0.6999	826.67 ± 0.3	25.22 ± 0.55
288.15 K, x1 = 0.8	817.43 ± 0.31	24.68 ± 0.54
288.15 K, x1 = 0.9	807.56 ± 0.32	24.24 ± 0.53
288.15 K, x1 = 1	795.65 ± 0.34	24.34 ± 0.53
293.15 K, x1 = 0.1	861.94 ± 0.26	–
293.15 K, x1 = 0.2	856.62 ± 0.27	–
293.15 K, x1 = 0.3	850.69 ± 0.28	–
293.15 K, x1 = 0.4	844.49 ± 0.28	–
293.15 K, x1 = 0.5	837.08 ± 0.29	–
293.15 K, x1 = 0.6	829.76 ± 0.3	–
293.15 K, x1 = 0.6999	821.37 ± 0.31	–
293.15 K, x1 = 0.8	812.03 ± 0.32	–
293.15 K, x1 = 0.9	802.05 ± 0.33	–
293.15 K, x1 = 1	790.04 ± 0.34	–
298.15 K, x1 = 0.1	857.19 ± 0.27	27.42 ± 0.58
298.15 K, x1 = 0.2	851.77 ± 0.28	26.78 ± 0.57
298.15 K, x1 = 0.3	845.76 ± 0.28	26.27 ± 0.56
298.15 K, x1 = 0.4	839.43 ± 0.29	25.87 ± 0.56
298.15 K, x1 = 0.5	831.96 ± 0.3	25.26 ± 0.55
298.15 K, x1 = 0.6	824.52 ± 0.31	24.69 ± 0.54
298.15 K, x1 = 0.6999	816.05 ± 0.32	24.14 ± 0.53
298.15 K, x1 = 0.8	806.58 ± 0.33	23.46 ± 0.52
298.15 K, x1 = 0.9	796.47 ± 0.34	23.01 ± 0.51
298.15 K, x1 = 1	784.33 ± 0.35	23.02 ± 0.51
303.15 K, x1 = 0.1	852.43 ± 0.27	–
303.15 K, x1 = 0.2	846.92 ± 0.28	–
303.15 K, x1 = 0.3	840.8 ± 0.29	–
303.15 K, x1 = 0.4	834.37 ± 0.3	–
303.15 K, x1 = 0.5	826.83 ± 0.31	–
303.15 K, x1 = 0.6	819.3 ± 0.31	–
303.15 K, x1 = 0.6999	810.71 ± 0.32	–
303.15 K, x1 = 0.8	801.09 ± 0.33	–
303.15 K, x1 = 0.9	790.88 ± 0.34	–
303.15 K, x1 = 1	778.57 ± 0.36	–
308.15 K, x1 = 0.1	847.66 ± 0.28	26.25 ± 0.56
308.15 K, x1 = 0.2	842.06 ± 0.29	25.78 ± 0.55
308.15 K, x1 = 0.3	835.83 ± 0.29	25.21 ± 0.55
308.15 K, x1 = 0.4	829.3 ± 0.3	24.88 ± 0.54
308.15 K, x1 = 0.5	821.64 ± 0.31	24.2 ± 0.53
308.15 K, x1 = 0.6	814 ± 0.32	23.59 ± 0.52
308.15 K, x1 = 0.6999	805.29 ± 0.33	22.92 ± 0.51
308.15 K, x1 = 0.8	795.56 ± 0.34	22.51 ± 0.5
308.15 K, x1 = 0.9	785.21 ± 0.35	21.83 ± 0.49
308.15 K, x1 = 1	772.76 ± 0.36	21.72 ± 0.49
313.15 K, x1 = 0.1	842.86 ± 0.29	–
313.15 K, x1 = 0.2	837.17 ± 0.29	–
313.15 K, x1 = 0.3	830.83 ± 0.3	–
313.15 K, x1 = 0.4	824.2 ± 0.31	–
313.15 K, x1 = 0.5	816.43 ± 0.32	–
313.15 K, x1 = 0.6	808.68 ± 0.33	–
313.15 K, x1 = 0.6999	799.88 ± 0.33	–
313.15 K, x1 = 0.8	790.01 ± 0.35	–
313.15 K, x1 = 0.9	779.49 ± 0.36	–
313.15 K, x1 = 1	766.91 ± 0.37	–
318.15 K, x1 = 0.1	838.04 ± 0.29	24.97 ± 0.54
318.15 K, x1 = 0.2	832.23 ± 0.3	24.75 ± 0.54
318.15 K, x1 = 0.3	825.82 ± 0.31	24.09 ± 0.53
318.15 K, x1 = 0.4	819.06 ± 0.31	23.74 ± 0.52
318.15 K, x1 = 0.5	811.19 ± 0.32	22.82 ± 0.51
318.15 K, x1 = 0.6	803.32 ± 0.33	22.67 ± 0.51
318.15 K, x1 = 0.6999	794.39 ± 0.34	21.7 ± 0.49
318.15 K, x1 = 0.8	784.39 ± 0.35	21.34 ± 0.49
318.15 K, x1 = 0.9	773.74 ± 0.36	20.48 ± 0.48
318.15 K, x1 = 1	760.99 ± 0.38	20.38 ± 0.47
323.15 K, x1 = 0.1	833.22 ± 0.3	–
323.15 K, x1 = 0.2	827.29 ± 0.3	–
323.15 K, x1 = 0.3	820.75 ± 0.31	–
323.15 K, x1 = 0.4	813.89 ± 0.32	–
323.15 K, x1 = 0.5	805.91 ± 0.33	–
323.15 K, x1 = 0.6	797.91 ± 0.34	–
323.15 K, x1 = 0.6999	788.88 ± 0.35	–
323.15 K, x1 = 0.8	778.74 ± 0.36	–
323.15 K, x1 = 0.9	767.94 ± 0.37	–
323.15 K, x1 = 1	755.02 ± 0.39	–
328.15 K, x1 = 0.1	828.34 ± 0.3	23.63 ± 0.52
328.15 K, x1 = 0.2	822.32 ± 0.31	23.48 ± 0.52
328.15 K, x1 = 0.3	815.67 ± 0.32	23.04 ± 0.51
328.15 K, x1 = 0.4	808.7 ± 0.33	22.7 ± 0.51
328.15 K, x1 = 0.5	800.59 ± 0.34	21.99 ± 0.5
328.15 K, x1 = 0.6	792.48 ± 0.35	21.06 ± 0.48
328.15 K, x1 = 0.6999	783.31 ± 0.36	20.65 ± 0.48
328.15 K, x1 = 0.8	773.01 ± 0.37	19.95 ± 0.47
328.15 K, x1 = 0.9	762.08 ± 0.38	19.32 ± 0.46
328.15 K, x1 = 1	748.98 ± 0.39	19.15 ± 0.46
